Reference: article PMC9738565, “N1-Benzyl Tryptamine Pan-SHIP1/2 Inhibitors: Synthesis and Preliminary Biological Evaluation as Anti-Tumor Agents” (Molecules, 2022)
Read-outs that look alike come from different tables or passages of the source. Marks after values point to notes of the source that are not given here.

Tests used:
[1] = tested on: recombinant human truncated SHIP1 (tSHIP1); experiment: Malachite green phosphatase release assay, SHIP1; type: biochemical; conditions: for Malachite (250 µM) % Inhib. SHIP1: 250 µM compound; for Malachite (500 µM) % Inhib. SHIP1: 500 µM compound; for activity against SHIP1 (in words): summary of Table 1
Method: These compounds were then tested for their activity against the two SHIP paralogs, SHIP1 and SHIP2 in the colorimetric malachite green phosphatase assay. The malachite green assay detects the amount of free phosphate produced from enzymatic reactions with SHIP and an inositol phospholipid substrate. The Malachite assay is useful for ruling out compounds that are fluorescent or have aggregation issues and is inexpensive, so it was utilized as the primary screen even though it is not as sensitive as other assays.
(§1) 4.7. Malachite Green Phosphatase Release Assays
(§2) Malachite green assays to monitor phosphatase release (Echelon Biosciences) were performed with recombinant human truncated SHIP1 (tSHIP1) and SHIP2 (Echelon Biosciences). Serial dilutions of the compounds dissolved in DMSO were added to the recombinant enzymes diluted in reaction buffer Rx (50 mM Hepes pH 7.4, 150 mM NaCl, 1 mM MgCl2, 0.25 mM EDTA) in triplicate reaction wells in 96-well plates. After incubation for 2 min at room temperature, 2.5 µL of 1 mM phosphatidylinositol 3,4,5-trisphosphate diC8 (PI(3,4,5)P3-diC8, Echelon Biosciences) was added to each reaction to a final concentration of 100 µM in a final volume of 25 µL /well. Following a 20 min incubation at 37 °C, 100 µL of Malachite Green solution (Echelon Biosciences) was added to each well and the plates were incubated at room temperature in the dark for 15 min. Plates were then read at 620 nm on a plate reader (Synergy 2, BioTek, Santa Clara, CA, USA). In addition, 3α-Aminocholestane, a known SHIP1 inhibitor, and AS1949490, a known SHIP2 inhibitor, were used as positive controls.

[2] = target: T1, SHIP2 (Homo sapiens, UniProt O15357); experiment: Malachite green phosphatase release assay, SHIP2; type: biochemical; conditions: for inhibition at 250 µM: read-out: Malachite (250 µM) % Inhib. SHIP2; for inhibition at 500 µM: read-out: Malachite (500 µM) % Inhib. SHIP2; for activity against SHIP2 (in words): summary of Table 1
T1 construct: purchased Echelon Biosciences
T1 sequence (O15357 1-1258): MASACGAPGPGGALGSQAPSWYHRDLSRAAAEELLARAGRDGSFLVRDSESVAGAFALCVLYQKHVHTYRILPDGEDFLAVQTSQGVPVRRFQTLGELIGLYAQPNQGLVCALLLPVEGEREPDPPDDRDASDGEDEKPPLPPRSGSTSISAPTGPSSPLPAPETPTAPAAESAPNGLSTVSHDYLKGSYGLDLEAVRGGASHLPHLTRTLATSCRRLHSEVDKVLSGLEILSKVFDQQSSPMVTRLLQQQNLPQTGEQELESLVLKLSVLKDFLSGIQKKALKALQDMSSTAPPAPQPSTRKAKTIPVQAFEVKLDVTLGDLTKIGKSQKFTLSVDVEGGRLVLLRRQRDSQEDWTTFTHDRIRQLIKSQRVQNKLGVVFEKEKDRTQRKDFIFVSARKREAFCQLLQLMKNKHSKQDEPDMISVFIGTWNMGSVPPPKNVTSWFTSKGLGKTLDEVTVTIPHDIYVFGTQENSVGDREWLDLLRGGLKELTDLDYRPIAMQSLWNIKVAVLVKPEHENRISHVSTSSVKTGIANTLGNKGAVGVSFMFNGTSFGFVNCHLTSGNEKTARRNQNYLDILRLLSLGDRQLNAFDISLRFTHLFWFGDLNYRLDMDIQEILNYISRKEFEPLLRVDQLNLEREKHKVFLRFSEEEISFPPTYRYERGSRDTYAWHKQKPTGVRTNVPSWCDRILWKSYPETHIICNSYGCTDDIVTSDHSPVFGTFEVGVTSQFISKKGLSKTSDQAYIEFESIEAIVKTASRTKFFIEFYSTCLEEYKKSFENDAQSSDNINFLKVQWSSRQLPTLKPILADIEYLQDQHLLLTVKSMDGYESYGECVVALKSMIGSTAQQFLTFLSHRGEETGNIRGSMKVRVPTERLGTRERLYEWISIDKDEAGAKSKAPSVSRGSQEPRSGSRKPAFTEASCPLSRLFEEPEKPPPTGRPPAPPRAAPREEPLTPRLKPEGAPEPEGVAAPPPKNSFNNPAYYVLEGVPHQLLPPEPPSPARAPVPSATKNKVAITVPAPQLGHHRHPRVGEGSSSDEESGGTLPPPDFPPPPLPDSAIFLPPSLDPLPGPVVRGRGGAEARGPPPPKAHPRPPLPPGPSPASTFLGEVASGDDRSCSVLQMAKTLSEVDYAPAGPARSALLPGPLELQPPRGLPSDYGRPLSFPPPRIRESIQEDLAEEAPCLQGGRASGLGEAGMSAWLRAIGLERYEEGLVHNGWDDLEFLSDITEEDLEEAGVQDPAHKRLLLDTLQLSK
Method: (§3) These compounds were then tested for their activity against the two SHIP paralogs, SHIP1 and SHIP2 in the colorimetric malachite green phosphatase assay. The malachite green assay detects the amount of free phosphate produced from enzymatic reactions with SHIP and an inositol phospholipid substrate.
as §1, §2

[3] = target: T2, tSHIP1 (Homo sapiens, UniProt Q92835); experiment: Fluorescence Polarization (FP) assay for the detection of PI(3,4)P2, SHIP1; type: biochemical; conditions: FP assay; read-out: IC50 SHIP1 (Via FP)
T2 sequence (Q92835 399-715 limits assumed): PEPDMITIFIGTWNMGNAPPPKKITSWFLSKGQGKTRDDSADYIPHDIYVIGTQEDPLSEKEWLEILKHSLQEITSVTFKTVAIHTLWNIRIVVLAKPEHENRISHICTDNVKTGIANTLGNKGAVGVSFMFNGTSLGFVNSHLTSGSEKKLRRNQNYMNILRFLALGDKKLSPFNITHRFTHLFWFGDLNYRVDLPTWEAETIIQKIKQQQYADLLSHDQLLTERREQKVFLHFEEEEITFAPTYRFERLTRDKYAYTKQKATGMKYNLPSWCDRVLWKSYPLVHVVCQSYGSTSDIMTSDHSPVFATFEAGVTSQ
Method: as §3
4.8. Fluorescence Polarization (FP) Assays for the Detection of PI(3,4)P2
The FP Assay for the detection of PI(3,4)P2 (Echelon Biosciences) was performed using tSHIP1 [48] with serial dilutions of the tryptamines in DMSO according to the manufacturer’s recommendation as previously described. […] 40 µL of 4 µM PIP3 (PI(3,4,5)P3-diC8) in Rx buffer is added to each reaction and incubated at 37 °C for 20 min, followed by heat inactivation for 3 min at 95 °C. Reactions were spun down briefly and 10 µL of each reaction was added in 6 replicate wells to a black 384-well plate provided with the FP kit. 10 µL of 1X reconstituted Detector (a phosphoinositide binding protein) in PBS is then added to each well, followed by 5 µL of 1X freshly diluted Probe (in PBS, a fluorophore-labeled phosphoinositide) protected from light. Assay plates are gently tapped to mix, the plate is sealed and spun down briefly and the reaction is allowed to equilibrate for 60 min at room temperature protected from light.

[4] = target: T1, SHIP2; experiment: Fluorescence Polarization (FP) assay for the detection of PI(3,4)P2, SHIP2; type: biochemical; conditions: read-out: IC50 SHIP2 (via FP)
[5] = Behaviour of compound when mixed with assay buffer; type: physicochemical
Method: Compounds with modifications of the primary amine of the tryptamine were also tested. […] While SHIP1 agonists may have applications as anti-inflammatories, the agonist activity of 15 was weak and therefore was not further pursued. […] While these analogs may present a path towards selective inhibitors of SHIP2, these compounds will not be useful in determining the effects of pan-SHIP inhibition in tumor models.

Row | SMILES | Malachite (250 µM) % Inhib. SHIP1 [1] | Malachite (500 µM) % Inhib. SHIP1 [1] | activity against SHIP1 (in words) [1] | inhibition at 250 µM ([2]; 250 µM compound) [%] | inhibition at 500 µM ([2]; 500 µM compound) [%] | activity against SHIP2 (in words) [2] | IC50 [3] [µM] | IC50 [4] [µM] | inhibition at 250 µM [2] [%] | inhibition at 500 µM [2] [%] | solubility behaviour in buffer [5]
1 | CSc1ccc2c(c1)c(CCN)c(C)n2Cc1ccc(Cl)cc1.Cl [Compound 7b, 2-(1-(4-Chlorobenzyl)-2-methyl-5-(methylthio)-1H-indol-3-yl)ethanaminium chloride] | 0% | 33% | significant activity | 18 | 49 | significant activity | 11 | – | – | – | –
2 | CSc1ccc2c(c1)c(CCN)c(C)n2Cc1ccc(Br)cc1.Cl [Compound 7c, 2-(1-(4-Bromobenzyl)-2-methyl-5-(methylthio)-1H-indol-3-yl)ethanaminium chloride] | 3% | 47% | – | 30 | 38 | – | 51 | 58 | – | – | –
3 | CSc1ccc2c(c1)c(CCN)c(C)n2Cc1ccccc1.Cl [Compound 7e, 2-(1-Benzyl-2-methyl-5-(methylthio)-1H-indol-3-yl)ethanaminium chloride] | 0% | 40% | active analog | 28 | 39 | active analog | 13 | 12 | – | – | –
4 | CSc1ccc2[nH]c(C)c(CCN)c2c1.Cl [Compound 7f, 2-(2-Methyl-5-(methylthio)-1H-indol-3-yl)ethanaminium chloride] | 0% | 0% | virtually no activity | – | – | virtually no activity | – | – | 0 | 2 | –
5 | CNCCc1c(C)n(Cc2ccccc2Cl)c2ccc(SC)cc12 [Compound 13, (2{1-[(2-Chlorophenyl)methyl]-2-methyl-5-(methylsulfanyl-1H-indol-3-yl}ethyl)methylaminium chloride] | 0% | 9% | no inhibition | 14 | 38 | – | – | – | – | – | –
6 | CSc1ccc2c(c1)c(CCN(C)C)c(C)n2Cc1ccccc1Cl [Compound 14, (2{1-[(2-Chlorophenyl)methyl]-2-methyl-5-(methylsulfanyl-1H-indol-3-yl}ethyl)dimethylaminium chloride] | 0% | 5% | inactive | 0 | 6 | inactive | – | – | – | – | –
7 | CSc1ccc2c(c1)c(CCNS(C)(=O)=O)c(C)n2Cc1ccccc1Cl [Compound 15, N-(2{1-[(2-Chlorophenyl)methyl]-2-methyl-5-(methylsulfanyl)-1H-indol-3-yl}ethyl) methanesulfonamide] | −10% | −27% | weak agonist | – | – | – | – | – | – | – | –
8 | CSc1ccc2c(c1)c(CCNC(C)=O)c(C)n2Cc1ccccc1Cl [Compound 16] | 25% ^a | 0% ^a | – | 0 | 0 | – | – | – | – | – | tended to precipitate when mixed with buffer
9 | CCNCCc1c(C)n(Cc2ccccc2Cl)c2ccc(SC)cc12 [Compound 17, (2{1-[(2-Chlorophenyl)methyl]-2-methyl-5-(methylsulfanyl-1H-indol-3-yl}ethyl)ethylaminium chloride] | 1% | 21% | no inhibition | 13 | 47 | – | – | – | – | – | –
